Results: patent publication US20260001893A1, “SMALL MOLECULE MODULATORS OF STAT6” (Gilead Sciences, Inc., priority 2024, published 2026)
pEC50: −log10 of the molar value.

system: Eotaxin-3 (CCL26) release in human whole blood stimulated with IL-4; assay: Human whole blood eotaxin-3 assay (IL-4 stimulated eotaxin-3 release); assay type: cell-based; settings: Homo sapiens, 48 h, human whole blood stimulated with recombinant human IL-4, 48 h; inhibition of eotaxin-3 release; given for test compounds with >80% Emax; geometric mean
How it was run: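 Lithium-heparin human whole blood was preincubated with compound (4-fold serial dilution, 0.5% DMSO final) for 2 h at 37° C, then stimulated with recombinant human IL-4 at […] final for 48 h. Eotaxin-3 (CCL26) in the supernatant was measured by MSD immunoassay.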

Row | SMILES | pEC50
1 | CN(C)C(=O)c1ccc(C2=CCN(Cc3cc4c(-n5ccc6c(c5=O)CCN6)ccnc4n3C)CC2)c(C2CC2)c1 [Example 1m113, cyclopropyl-N-dimethyl-4-(1-((1-methyl-4-(4-oxo-1,2,3,4-tetrahydro-5H-pyrrolo[3,2-c]pyridin-5-yl)-1H-pyrrolo[2,3-b]pyridin-2-yl)methyl)-1,2,3,6-tetrahydropyridin-4-yl)benzamide] | 7.52
2 | [2H]C([2H])([2H])N(C(=O)c1cc(C)c(C2=CCN(Cc3cc4c(-n5ccc(NC)c(C)c5=O)ccnc4n3C)CC2)c(F)c1)C([2H])([2H])[2H] [Example 1m114, 3-fluoro-5-methyl-N,N-bis(methyl-d3)-4-(1-((1-methyl-4-(3-methyl-4-(methylamino)-2-oxopyridin-1 (2H)-yl)-1H-pyrrolo[2,3-b]pyridin-2-yl)methyl)-1,2,3,6-tetrahydropyridin-4-yl)-benzamide] | 6.73
3 | CNc1ccn(-c2ccnc3c2cc(CN2CCC(c4c(F)cc(C(=O)N(C)C)cc4F)CC2)n3C)c(=O)c1F [Example 1m116, 3,5-difluoro-4-(1-((4-(3-fluoro-4-(methylamino)-2-oxopyridin-1 (2H)-yl)-1-methyl-1H-pyrrolo[2,3-b]pyridin-2-yl)methyl)piperidin-4-yl)-N,N-dimethylbenzamide] | 6.64
4 | [2H]C([2H])([2H])N(C(=O)c1cc(F)c(C2CCN(Cc3cc4c(-n5ccc6c(c5=O)CCN6)ccnc4n3C)CC2)c(F)c1)C([2H])([2H])[2H] [Example 1m117, 3,5-difluoro-N,N-bis(methyl-d3)-4-(1-((1-methyl-4-(4-oxo-1,2,3,4-tetrahydro-5H-pyrrolo[3,2-c]pyridin-5-yl)-1H-pyrrolo[2,3-b]pyridin-2-yl)methyl)piperidin-4-yl)benzamide] | 7.61
5 | CNc1nc(=O)n(-c2ccnc3c2cc(CN2CCC(c4c(F)cc(C(=O)N(C)C)cc4F)CC2)n3C)cc1F [Example 1m118, 3,5-difluoro-4-(1-((4-(5-fluoro-4-(methylamino)-2-oxopyrimidin-1 (2H)-yl)-1-methyl-1H-pyrrolo[2,3-b]pyridin-2-yl)methyl)piperidin-4-yl)-N,N-dimethylbenzamide] | 7.26
6 | CN(C)C(=O)c1cc(F)c(C2CCN(Cc3cc4c(-n5cc(F)c(N)c(F)c5=O)ccnc4n3C)CC2)c(F)c1 [Example 1m119, 4-(1-((4-(4-amino-3,5-difluoro-2-oxopyridin-1 (2H)-yl)-1-methyl-1H-pyrrolo[2,3-b]pyridin-2-yl)methyl)piperidin-4-yl)-3,5-difluoro-N,N-dimethylbenzamide] | 7.44
7 | C[C@H](c1cc2c(-n3ccc4c(c3=O)CCN4)ccnc2n1C)N1CC=C(c2c(F)cc(C(=O)N(C)C)cc2F)CC1 [Example 1m123, (R)-3,5-difluoro-N,N-dimethyl-4-(1-(1-(1-methyl-4-(4-oxo-1,2,3,4-tetrahydro-5H-pyrrolo[3,2-c]pyridin-5-yl)-1H-pyrrolo[2,3-b]pyridin-2-yl)ethyl)-1,2,3,6-tetrahydropyridin-4-yl)benzamide] | 6.68
8 | CNc1ccn(-c2ccnc3c2cc([C@H](C)N2CC=C(c4c(C)cc(C(=O)N(C)C)cc4F)CC2)n3C)c(=O)c1F [Example 1m125, (S)-3-fluoro-4-(1-(1-(4-(3-fluoro-4-(methylamino)-2-oxopyridin-1 (2H)-yl)-1-methyl-1H-pyrrolo[2,3-b]pyridin-2-yl)ethyl)-1,2,3,6-tetrahydropyridin-4-yl)-N,N,5-trimethylbenzamide] | 7.60
9 | C[C@H](c1cc2c(-n3ccc4c(c3=O)CCN4)ccnc2n1C)N1CCC(c2c(F)cc(C(=O)N(C)C)cc2F)CC1 [Example 1m127, (R)-3,5-difluoro-N,N-dimethyl-4-(1-(1-(1-methyl-4-(4-oxo-1,2,3,4-tetrahydro-5H-pyrrolo[3,2-c]pyridin-5-yl)-1H-pyrrolo[2,3-b]pyridin-2-yl)ethyl)piperidin-4-yl)benzamide] | 7.31
10 | CNc1cc(=O)n(-c2ccnc3c2cc([C@H](C)N2CCC(c4c(C)cc(C(=O)N(C)C)cc4F)CC2)n3C)cc1F [Example 1m131, (S)-3-fluoro-4-(1-(1-(4-(5-fluoro-4-(methylamino)-2-oxopyridin-1 (2H)-yl)-1-methyl-1H-pyrrolo[2,3-b]pyridin-2-yl)ethyl)piperidin-4-yl)-N,N,5-trimethylbenzamide] | 6.05
11 | CN(C)C(=O)c1cc(F)c(C2CCN(Cc3cc4c(-n5cc(F)c6c(c5=O)CCN6)ccnc4n3C)CC2)c(F)c1 [Example 1m133, 3,5-difluoro-4-(1-((4-(7-fluoro-4-oxo-1,2,3,4-tetrahydro-5H-pyrrolo[3,2-c]pyridin-5-yl)-1-methyl-1H-pyrrolo[2,3-b]pyridin-2-yl)methyl)piperidin-4-yl)-N,N-dimethylbenzamide] | 7.12
12 | CNc1c(F)cn(-c2ccnc3c2cc(CN2CCC(c4c(F)cc(C(=O)N(C)C)cc4F)CC2)n3C)c(=O)c1F [Example 1m136, 4-(1-((4-(3,5-difluoro-4-(methylamino)-2-oxopyridin-1 (2H)-yl)-1-methyl-1H-pyrrolo[2,3-b]pyridin-2-yl)methyl)piperidin-4-yl)-3,5-difluoro-N,N-dimethylbenzamide] | 7.32
13 | CNc1cc(=O)n(-c2ccnc3c2cc([C@H](C)N2CC=C(c4c(C)cc(C(=O)N(C)C)cc4F)CC2)n3C)cc1OC [Example 1m137, (S)-3-fluoro-4-(1-(1-(4-(5-methoxy-4-(methylamino)-2-oxopyridin-1 (2H)-yl)-1-methyl-1H-pyrrolo[2,3-b]pyridin-2-yl)ethyl)-1,2,3,6-tetrahydropyridin-4-yl)-N,N,5-trimethylbenzamide] | 6.23

Now those with a higher pEC50, led by results:

Row | pEC50 | SMILES
14 | 7.65 | CNc1cc(=O)n(-c2ccnc3c2cc([C@@H](C)N2CCC(c4c(C)cc(C(=O)N(C)C)cc4F)CC2)n3C)cc1F [Example 1m130, (R)-3-fluoro-4-(1-(1-(4-(5-fluoro-4-(methylamino)-2-oxopyridin-1 (2H)-yl)-1-methyl-1H-pyrrolo[2,3-b]pyridin-2-yl)ethyl)piperidin-4-yl)-N,N,5-trimethylbenzamide]
15 | 7.69 | [2H]C([2H])([2H])N(C(=O)c1cc(F)c(C2=CCN(Cc3cc4c(-n5ccc6c(c5=O)CCN6)ccnc4n3C)CC2)c(F)c1)C([2H])([2H])[2H] [Example 1m115, 3,5-difluoro-N,N-bis(methyl-d3)-4-(1-((1-methyl-4-(4-oxo-1,2,3,4-tetrahydro-5H-pyrrolo[3,2-c]pyridin-5-yl)-1H-pyrrolo[2,3-b]pyridin-2-yl)methyl)-1,2,3,6-tetrahydropyridin-4-yl)benzamide]
16 | 7.82 | CN(C)C(=O)c1cc(F)c(C2CCN(Cc3cc4c(-n5ccc6c(c5=O)CCN6)ccnc4n3C)CC2)c(F)c1 [Example 1m110, 3,5-difluoro-N,N-dimethyl-4-(1-((1-methyl-4-(4-oxo-1,2,3,4-tetrahydro-5H-pyrrolo[3,2-c]pyridin-5-yl)-1H-pyrrolo[2,3-b]pyridin-2-yl)methyl)piperidin-4-yl)benzamide]
17 | 7.91 | C[C@@H](c1cc2c(-n3ccc4c(c3=O)CCN4)ccnc2n1C)N1CCC(c2c(F)cc(C(=O)N(C)C)cc2F)CC1 [Example 1m126, (S)-3,5-difluoro-N,N-dimethyl-4-(1-(1-(1-methyl-4-(4-oxo-1,2,3,4-tetrahydro-5H-pyrrolo[3,2-c]pyridin-5-yl)-1H-pyrrolo[2,3-b]pyridin-2-yl)ethyl)piperidin-4-yl)benzamide]
18 | 7.94 | C[C@@H](c1cc2c(-n3ccc4c(c3=O)CCN4)ccnc2n1C)N1CC=C(c2c(F)cc(C(=O)N(C)C)cc2F)CC1 [Example 1m122, (S)-3,5-difluoro-N,N-dimethyl-4-(1-(1-(1-methyl-4-(4-oxo-1,2,3,4-tetrahydro-5H-pyrrolo[3,2-c]pyridin-5-yl)-1H-pyrrolo[2,3-b]pyridin-2-yl)ethyl)-1,2,3,6-tetrahydropyridin-4-yl)benzamide]
19 | 7.97 | Cc1cc(C(=O)N(C)C)cc(F)c1C1=CCN([C@@H](C)c2cc3c(-n4cc(F)c(N)c(F)c4=O)ccnc3n2C)CC1 [Example 1m132, (S)-4-(1-(1-(4-(4-amino-3,5-difluoro-2-oxopyridin-1 (2H)-yl)-1-methyl-1H-pyrrolo[2,3-b]pyridin-2-yl)ethyl)-1,2,3,6-tetrahydropyridin-4-yl)-3-fluoro-N,N,5-trimethylbenzamide]
20 | 8.12 | CNc1cc(=O)n(-c2ccnc3c2cc([C@H](C)N2CC=C(c4c(C)cc(C(=O)N(C)C)cc4F)CC2)n3C)cc1F [Example 1m124, (S)-3-fluoro-4-(1-(1-(4-(5-fluoro-4-(methylamino)-2-oxopyridin-1 (2H)-yl)-1-methyl-1H-pyrrolo[2,3-b]pyridin-2-yl)ethyl)-1,2,3,6-tetrahydropyridin-4-yl)-N,N,5-trimethylbenzamide]
21 | 8.16 | Cc1cc(C(=O)N(C)C)cc(F)c1C1=CCN([C@@H](C)c2cc3c(-n4cc(F)c(N)cc4=O)ccnc3n2C)CC1 [Example 1m111, (S)-4-(1-(1-(4-(4-amino-5-fluoro-2-oxopyridin-1 (2H)-yl)-1-methyl-1H-pyrrolo[2,3-b]pyridin-2-yl)ethyl)-1,2,3,6-tetrahydropyridin-4-yl)-3-fluoro-N,N,5-trimethylbenzamide]
22 | 8.39 | CNc1nc(=O)n(-c2ccnc3c2cc([C@H](C)N2CC=C(c4c(C)cc(C(=O)N(C)C)cc4F)CC2)n3C)cc1F [Example 1m129, (S)-3-fluoro-4-(1-(1-(4-(5-fluoro-4-(methylamino)-2-oxopyrimidin-1 (2H)-yl)-1-methyl-1H-pyrrolo[2,3-b]pyridin-2-yl)ethyl)-1,2,3,6-tetrahydropyridin-4-yl)-N,N,5-trimethylbenzamide]
23 | 8.47 | [2H]C([2H])([2H])N(C(=O)c1cc(C)c(C2=CCN([C@@H](C)c3cc4c(-n5ccc6c(c5=O)CCN6)ccnc4n3C)CC2)c(F)c1)C([2H])([2H])[2H] [Example 1m128, (S)-3-fluoro-5-methyl-N,N-bis(methyl-d3)-4-(1-(1-(1-methyl-4-(4-oxo-1,2,3,4-tetrahydro-5H-pyrrolo[3,2-c]pyridin-5-yl)-1H-pyrrolo[2,3-b]pyridin-2-yl)ethyl)-1,2,3,6-tetrahydropyridin-4-yl)benzamide]
